Source: patent publication US20230150929A1, “SELECTIVE NON-CYCLIC NUCLEOTIDE ACTIVATORS FOR THE CAMP SENSOR EPAC1” (The Board of Regents of The University of Texas System, priority 2020, published 2023)

Target: T1, EPAC1-CNBD (Homo sapiens, UniProt O95398)
T1 sequence (O95398 169-318 isoform O95398-3): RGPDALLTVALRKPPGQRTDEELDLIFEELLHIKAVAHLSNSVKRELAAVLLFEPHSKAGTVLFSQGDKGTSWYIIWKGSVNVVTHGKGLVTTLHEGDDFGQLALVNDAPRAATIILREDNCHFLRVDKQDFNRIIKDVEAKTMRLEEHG
Test: 8-NBD-cAMP competition binding assay, EPAC1-CNBD
Conditions: for RFI (%) (relative fluorescence intensity), Table 4: compound 10 µM, EPAC1-CNBD 0.8 µM, 8-NBD-cAMP 62.5 nM, mean ± SEM, lower RFI = stronger binding; for EPAC1 binding potency / affinity in words: SAR comment on RFI, mostly relative to 3 or 9a

| SMILES | RFI (%) (relative fluorescence intensity), Table 4 | EPAC1 binding potency / affinity in words | fold binding potency increase versus compound 3 (from RFI at 10 µM) |
| --- | --- | --- | --- |
| COC(=O)c1cccc(S(=O)(=O)NC(=O)COc2ccc3ccccc3c2)c1 [Compound 25ad, Methyl 3-(N-(2-(naphthalene-2-yloxy)acetyl)sulfamoyl)benzoate] | 71 ± 1 |  |  |
| O=C(COc1ccc2ccccc2c1)NS(=O)(=O)c1ccccc1F [Compound 25b, N-((2-Fluorophenyl)sulfonyl)-2-(naphthalen-2-yloxy)acetamide] | 69 ± 2 | decreased the binding potency |  |
| O=C(COc1ccc2ccccc2c1)NS(=O)(=O)c1cccc(F)c1 [Compound 25c, N-((3-Fluorophenyl)sulfonyl)-2-(naphthalen-2-yloxy)acetamide] | 82 ± 4 | decreased the binding potency |  |
| COc1ccc(S(=O)(=O)NC(=O)COc2ccc3ccccc3c2)cc1OC [Compound 25i, N-((3,4-Dimethoxyphenyl)sulfonyl)-2-(naphthalen-2-yloxy)acetamide] | 50 ± 3 |  |  |
| COc1ccc2ccc(OCC(=O)NS(=O)(=O)c3cc(Cl)cc(Cl)c3)cc2c1 [Compound 25l, N-((3,5-Dichlorophenyl)sulfonyl)-2-((7-methoxynaphthalen-2-yl)oxy)acetamide] | 54 ± 6 |  |  |
| COc1ccc2ccc(OCC(=O)NS(=O)(=O)c3ccc([N+](=O)[O-])cc3OC)cc2c1 [Compound 25m, N-((2-Methoxy-4-nitrophenyl)sulfonyl)-2-((7-methoxynaphthalen-2-yl)oxy)acetamide] | 24 ± 2 |  |  |
| Cc1cc(-c2cncc(F)c2)cc(S(=O)(=O)NC(=O)COc2ccc3ccccc3c2)c1 [Compound 25r, N-((3-(5-Fluoropyridin-3-yl)-5-methylphenyl)sulfonyl)-2-(naphthalen-2-yloxy)acetamide] | 36 ± 3 |  |  |
| Cc1cc(-c2ccco2)cc(S(=O)(=O)NC(=O)COc2ccc3ccccc3c2)c1 [Compound 25s, N-((3-(Furan-2-yl)-5-methylphenyl)sulfonyl)-2-(naphthalen-2-yloxy)acetamide] | 40 ± 1 |  |  |
| Cc1cc(-c2ccnn2C)cc(S(=O)(=O)NC(=O)COc2ccc3ccccc3c2)c1 [Compound 25t, N-((3-Methyl-5-(1-methyl-1H-pyrazol-5-yl)phenyl)sulfonyl)-2-(naphthalen-2-yloxy)acetamide] | 34 ± 5 |  |  |
| Cc1cc(Nc2ccc(C(F)(F)F)cn2)cc(S(=O)(=O)NC(=O)COc2ccc3ccccc3c2)c1 [Compound 25v, N-((3-Methyl-5-((5-(trifluoromethyl)pyridin-2-yl)amino)phenyl)sulfonyl)-2-(naphthalen-2-yloxy)acetamide] | 20 ± 3 |  | about 3 fold |
| Cc1ccc(S(=O)(=O)NC(=O)COc2ccc3ccccc3c2)cc1 [Compound 25w, 2-(Naphthalen-2-yloxy)-N-tosylacetamide] | 44 ± 2 |  |  |
| O=C(COc1ccc2ccccc2c1)NS(=O)(=O)c1cccc([N+](=O)[O-])c1 [Compound 25x, 2-(Naphthalen-2-yloxy)-N-((3-nitrophenyl)sulfonyl)acetamide] | 67 ± 3 |  |  |
| COc1cccc(S(=O)(=O)NC(=O)COc2ccc3ccccc3c2)c1 [Compound 25z, N-((3-methoxyphenyl)sulfonyl)-2-(naphthalen-2-yloxy)acetamide] | 33 ± 3 |  |  |

Other lines, results leading:

| RFI (%) (relative fluorescence intensity), Table 4 | EPAC1 binding potency / affinity in words | fold binding potency increase versus compound 3 (from RFI at 10 µM) | SMILES |
| --- | --- | --- | --- |
| 35± 1 |  |  | O=C(COc1ccc2ccccc2c1)NS(=O)(=O)c1cccc(-c2ccccc2)c1 [Compound 25ac, N-([1,1′-Biphenyl]-3-ylsulfonyl)-2-(naphthalene-2yloxy)acetamide] |
| 81 ± 4 | decreased the binding potency |  | O=C(COc1ccc2ccccc2c1)NS(=O)(=O)c1ccc(F)cc1 [Compound 25d, N-((4-Fluorophenyl)sulfonyl)-2-(naphthalen-2-yloxy)acetamide] |
| 72 ± 4 |  |  | COc1ccc(OC)c(S(=O)(=O)NC(=O)COc2ccc3ccccc3c2)c1 [Compound 25h, N-((2,5-Dimethoxyphenyl)sulfonyl)-2-(naphthalen-2-yloxy)acetamide] |
| 58 ± 2 |  |  | Cc1cc(Br)cc(S(=O)(=O)NC(=O)COc2ccc3ccccc3c2)c1 [Compound 25j, N-((3-Bromo-5-methylphenyl)sulfonyl)-2-(naphthalen-2-yloxy)acetamide] |
| 29 ± 8 |  |  | COc1ccc2ccc(OCC(=O)NS(=O)(=O)c3cc(C)cc(Br)c3)cc2c1 [Compound 25k, N-((3-Bromo-5-methylphenyl)sulfonyl)-2-((7-methoxynaphthalen-2-yl)oxy)acetamide] |
| 49 ± 4 |  |  | COc1ccc(OC)c(S(=O)(=O)NC(=O)COc2ccc3ccc(OC)cc3c2)c1 [Compound 25o, N-((2,5-Dimethoxyphenyl)sulfonyl)-2-((7-methoxynaphthalen-2-yl)oxy)acetamide] |
| 23 ± 4 |  |  | COc1ccc2ccc(OCC(=O)NS(=O)(=O)c3ccc(OC)c(OC)c3)cc2c1 [Compound 25p, N-((3,4-Dimethoxyphenyl)sulfonyl)-2-((7-methoxynaphthalen-2-yl)oxy)acetamide] |
| 49 ± 2 |  |  | O=C(COc1ccc2ccccc2c1)NS(=O)(=O)c1ccccc1 [Compound 25y, 2-(Naphthalen-2-yloxy)-N-(phenylsulfonyl)acetamide] |
